Data from patent US20160242414A1, “SAFENED HERBICIDAL COMPOSITIONS CONTAINING HALAUXIFEN OR 4-AMINO-3-CHLORO-5-FLUORO-6-(4-CHLORO-2-FLUORO-3-METHOXYPHENYL) PYRIDINE-2-CARBOXYLIC ACID AND METHODS OF USE THEREOF IN TURF” (Dow AgroSciences LLC, priority 2015, published 2016).

Experiments:
[1] = test system: perennial ryegrass (LOLPE); assay: Postemergence turf injury field trial, perennial ryegrass, with Activator 90 adjuvant
Protocol: (§1) For the ryegrass and tall fescue experiments, research trials were conducted in Indiana at the William H Daniel Turfgrass Research center in West Lafayette, Ind. on well established 10 year old stands of perennial ryegrass and tall fescue that were maintained as a home lawn with regular fertilization, irrigation and a 7.5 cm mowing height. To begin the trial, the research areas were sub-divided into 3 replications of 2.3 m^2 plots in a completely randomized block design for each grass species and spray mixtures were prepared just prior to the treatment by mixing the formulations with water.
Herbicide treatments were applied to ryegrass and tall fescue turfgrass plots in spray applications that included the spray adjuvant Activator 90 at 0.25% (v/v). The plots were treated with a hand held CO2 backpack sprayer equipped with a 3 liter bottle that delivered 804 liters/ha of spray to each plot using a flat fan nozzle. No irrigation, rainfall or mowing occurred until 24 hours after the application. The temperature at the time of the application was 24° C. and the wind speed averaged 4.8 km/hr. There was no cloud cover during the application and the soil was moist. Visual evaluations were made of turf injury for each plot on a 0%-100% scale where 0%=no injury and 100%=death at 0, 7, 14, 28 and 42 days after the application.
The following equation was used to calculate the expected activity of mixtures containing two active ingredients, A and B:
Expected=A+B−(A×B/100) • A=observed efficacy of active ingredient A at the same concentration as used in the mixture; • B=observed efficacy of active ingredient B at the same concentration as used in the mixture.

tall fescue (FESAR) = assay: Postemergence turf injury field trial, tall fescue, with Activator 90 adjuvant; conditions: 28 days after application
Protocol: as §1
Herbicide treatments were applied to ryegrass and tall fescue turfgrass plots in spray applications that included the spray adjuvant Activator 90 at 0.25% (v/v). The plots were treated with a hand held CO2 backpack sprayer equipped with a 3 liter bottle that delivered 804 liters/ha of spray to each plot using a flat fan nozzle. No irrigation, rainfall or mowing occurred until 24 hours after the application. The temperature at the time of the application was 24° C. and the wind speed averaged 4.8 km/hr. There was no cloud cover during the application and the soil was moist. Visual evaluations were made of turf injury for each plot on a 0%-100% scale where 0%=no injury and 100%=death at 0, 7, 14, 28 and 42 days after the application. […]

SMILES: CNC.O=C(O)COc1ccc(Cl)cc1Cl [2,4-D DMA, 2,4-D dimethyl ammonium]
- Observed Injury ([1]; 28 days after application, 2,4-D DMA 840 g ae/ha): 3%
- Observed Injury ([1]; 28 days after application, 2,4-D DMA 1120 g ae/ha): 7%
- Observed Injury ([1]; 28 days after application, 2,4-D DMA 1680 g ae/ha): 0%
- Observed Injury ([1]; 28 days after application, 2,4-D DMA 2520 g ae/ha): 10%
- Observed Injury ([1]; 42 days after application, 2,4-D DMA 840 g ae/ha): 0%
- Observed Injury ([1]; 42 days after application, 2,4-D DMA 1120 g ae/ha): 0%
- Observed Injury ([1]; 42 days after application, 2,4-D DMA 1680 g ae/ha): 0%
- Observed Injury ([1]; 42 days after application, 2,4-D DMA 2520 g ae/ha): 0%

SMILES: CNC.COc1c(Cl)ccc(Cl)c1C(=O)O [Dicamba DMA, dicamba dimethyl ammonium]
- Observed Injury (tall fescue (FESAR); dicamba DMA 280 g ae/ha): 0%
- Observed Injury ([1]; 28 days after application, dicamba DMA 280 g ae/ha): 7%

SMILES: COC(=O)c1nc(-c2ccc(Cl)c(OC)c2F)cc(N)c1Cl [Halauxifen-Methyl, halauxifen-methyl]
- Observed Injury (tall fescue (FESAR); halauxifen-methyl 30 g ae/ha): 32%
- Observed Injury ([1]; 28 days after application, halauxifen-methyl 15 g ae/ha, 0%=no injury, 100%=death): 23%
- Observed Injury ([1]; 28 days after application, halauxifen-methyl 30 g ae/ha): 33%
- Observed Injury ([1]; 28 days after application, halauxifen-methyl 45 g ae/ha): 40%
- Observed Injury ([1]; 42 days after application, halauxifen-methyl 15 g ae/ha): 8%
- Observed Injury ([1]; 42 days after application, halauxifen-methyl 30 g ae/ha): 12%
- Observed Injury ([1]; 42 days after application, halauxifen-methyl 45 g ae/ha): 35%
